Results published in BindingDB's records for doi:10.1021/jm00039a015 (Abbott Laboratories, 1994).

Target: Platelet-activating factor receptor (Oryctolagus cuniculus)
Experiment: Antagonist activity against platelet activating factor (PAF) receptor in rabbit platelet membranes using [3H]C18-PAF as radioligand

Compound: O=C(c1ccccc1)c1cccc(NC(=O)[C@@H]2CSC(c3cccnc3)N2)c1 (stereo partly drawn) [(R)-2-Pyridin-3-yl-thiazolidine-4-carboxylic acid (3-benzoyl-phenyl)-amide]
- Ki: 7.7 nM

Compound: NC(=O)Cn1cc(C(=O)[C@@H]2CSC(c3cccnc3)N2)c2ccccc21 (stereo partly drawn) [2-[3-((R)-2-Pyridin-3-yl-thiazolidine-4-carbonyl)-indol-1-yl]-acetamide]
- Ki: 5 nM

Compound: CCS(=O)(=O)n1cc(C(=O)[C@@H]2CSC(c3cccnc3)N2)c2ccccc21 (stereo partly drawn) [(1-Ethanesulfonyl-1H-indol-3-yl)-((R)-2-pyridin-3-yl-thiazolidin-4-yl)-methanone]
- Ki: 18 nM

Compound: CN(C)C(=O)n1cc(C(=O)[C@@H]2CSC(c3cccnc3)N2)c2ccc(-c3ccccc3)cc21 (stereo partly drawn) [6-Phenyl-3-((R)-2-pyridin-3-yl-thiazolidine-4-carbonyl)-indole-1-carboxylic acid dimethylamide]
- Ki: 3.6 nM

Compound: COc1ccc2c(C(=O)[C@@H]3CSC(c4cccnc4)N3)cn(C(=O)OC(C)(C)C)c2c1 (stereo partly drawn) [6-Methoxy-3-((R)-2-pyridin-3-yl-thiazolidine-4-carbonyl)-indole-1-carboxylic acid tert-butyl ester; compound with oxalic acid]
- Ki: 8.2 nM

Compound: O=C(c1cn(C(=O)OCc2ccccc2)c2ccccc12)[C@@H]1CSC(c2cccnc2)N1 (stereo partly drawn) [3-((R)-2-Pyridin-3-yl-thiazolidine-4-carbonyl)-indole-1-carboxylic acid benzyl ester; compound with oxalic acid]
- Ki: 3 nM

Compound: Cc1cccc2c(C(=O)[C@@H]3CSC(c4cccnc4)N3)c[nH]c12 (stereo partly drawn) [(7-Methyl-1H-indol-3-yl)-((R)-2-pyridin-3-yl-thiazolidin-4-yl)-methanone]
- Ki: 6.5 nM

Compound: CCN(CC)C(=O)n1cc(C(=O)[C@@H]2CSC(c3cccnc3)N2)c2ccccc21 (stereo partly drawn) [3-((R)-2-Pyridin-3-yl-thiazolidine-4-carbonyl)-indole-1-carboxylic acid diethylamide]
- Ki: 1.4 nM

Compound: O=C(c1ccccc1)c1ccc2ccn(C(=O)[C@@H]3CSC(c4cccnc4)N3)c2c1 (stereo partly drawn) [(6-Benzoyl-indol-1-yl)-((R)-2-pyridin-3-yl-thiazolidin-4-yl)-methanone]
- Ki: 95 nM

Compound: O=C(Nc1cccc(Cl)c1)[C@@H]1CSC(c2cccnc2)N1 (stereo partly drawn) [(R)-2-Pyridin-3-yl-thiazolidine-4-carboxylic acid (3-chloro-phenyl)-amide]
- Ki: 208 nM

Compound: CC(C)(C)OC(=O)n1cc(C(=O)[C@@H]2CSC(c3cccnc3)N2)c2ccc(OCc3ccccc3)cc21 (stereo partly drawn) [6-Benzyloxy-3-((R)-2-pyridin-3-yl-thiazolidine-4-carbonyl)-indole-1-carboxylic acid tert-butyl ester]
- Ki: 1 nM

Compound: Cc1ccc2c(c1)c(C(=O)[C@@H]1CSC(c3cccnc3)N1)c(C)n2C(=O)OC(C)(C)C (stereo partly drawn) [2,5-Dimethyl-3-((R)-2-pyridin-3-yl-thiazolidine-4-carbonyl)-indole-1-carboxylic acid tert-butyl ester; compound with oxalic acid]
- Ki: 77 nM

Compound: COCCOc1ccc2c(C(=O)[C@@H]3CSC(c4cccnc4)N3)cn(C(=O)N(C)C)c2c1 (stereo partly drawn) [6-(2-Methoxy-ethoxy)-3-((R)-2-pyridin-3-yl-thiazolidine-4-carbonyl)-indole-1-carboxylic acid dimethylamide]
- Ki: 3 nM

Compound: Cc1c(C(=O)[C@@H]2CSC(c3cccnc3)N2)c2ccccc2n1C(=O)N1CCOCC1 (stereo partly drawn) [[2-Methyl-3-((R)-2-pyridin-3-yl-thiazolidine-4-carbonyl)-indol-1-yl]-morpholin-4-yl-methanone]
- Ki: 88 nM

Compound: Cc1ccc2c(c1)c(C(=O)[C@@H]1CSC(c3cccnc3)N1)c(C)n2C(=O)N1CCOCC1 (stereo partly drawn) [[2,5-Dimethyl-3-((R)-2-pyridin-3-yl-thiazolidine-4-carbonyl)-indol-1-yl]-morpholin-4-yl-methanone]
- Ki: 36 nM

Compound: CN(C)C(=O)n1cc(C(=O)[C@@H]2CSC(c3cccnc3)N2)c2ccccc21 (stereo partly drawn) [3-((R)-2-Pyridin-3-yl-thiazolidine-4-carbonyl)-indole-1-carboxylic acid dimethylamide]
- Ki: 0.8 nM

Compound: CN(C(=O)n1cc(C(=O)[C@@H]2CSC(c3cccnc3)N2)c2ccccc21)c1ccccc1 (stereo partly drawn) [3-((R)-2-Pyridin-3-yl-thiazolidine-4-carbonyl)-indole-1-carboxylic acid methyl-phenyl-amide]
- Ki: 31 nM

Compound: O=C(O)Cn1cc(C(=O)[C@@H]2CSC(c3cccnc3)N2)c2ccccc21 (stereo partly specified) [[3-(2-Pyridin-3-yl-thiazolidine-4-carbonyl)-indol-1-yl]-acetic acid]
- Ki: 30 nM

Compound: O=C(O)CCn1cc(C(=O)[C@@H]2CSC(c3cccnc3)N2)c2ccccc21 (stereo partly drawn) [3-[3-((R)-2-Pyridin-3-yl-thiazolidine-4-carbonyl)-indol-1-yl]-propionic acid]
- Ki: 25 nM

Compound: CNC(=O)Cn1cc(C(=O)[C@@H]2CSC(c3cccnc3)N2)c2ccccc21 (stereo partly drawn) [N-Methyl-2-[3-((R)-2-pyridin-3-yl-thiazolidine-4-carbonyl)-indol-1-yl]-acetamide]
- Ki: 2.4 nM

Compound: O=C(c1c[nH]c2cccc(OCc3ccccc3)c12)[C@@H]1CSC(c2cccnc2)N1 (stereo partly drawn) [(4-Benzyloxy-1H-indol-3-yl)-((R)-2-pyridin-3-yl-thiazolidin-4-yl)-methanone]
- Ki: 13 nM

Compound: O=C(c1c[nH]c2ccccc12)[C@@H]1CS[C@H](c2cccnc2)N1C(=O)C(F)(F)F
- Ki: 1640 nM

Compound: CN(C)C(=O)n1cc(C(=O)[C@@H]2CSC(c3cccnc3)N2)c2ccc(C(=O)c3ccccc3)cc21 (stereo partly drawn) [6-Benzoyl-3-((R)-2-pyridin-3-yl-thiazolidine-4-carbonyl)-indole-1-carboxylic acid dimethylamide]
- Ki: 1 nM

Compound: CN(C)C(=O)n1cc(C(=O)[C@@H]2CSC(c3cccnc3)N2)c2ccc(OCc3ccc(F)cc3)cc21 (stereo partly drawn) [6-(4-Fluoro-benzyloxy)-3-((R)-2-pyridin-3-yl-thiazolidine-4-carbonyl)-indole-1-carboxylic acid dimethylamide]
- Ki: 1.8 nM

Compound: Cc1nnc2n1-c1sc3c(c1C(c1ccccc1Cl)=NC2)CC(C(=O)N1CCOCC1)C3 (stereo unspecified) [6-(2-chlorophenyl)-1-methyl-8,9-dihydro-4H,7H-cyclopenta[4,5]thieno[3,2-f][1,2,4]triazolo[4,3-a][1,4]diazepin-9-yl-1,4-oxazinan-4-ylmethanone (WEB 2170)]
- Ki: 29 nM

Compound: CCOC(=O)n1cc(C(=O)[C@@H]2CSC(c3cccnc3)N2)c2ccccc21 (stereo partly drawn) [3-((R)-2-Pyridin-3-yl-thiazolidine-4-carbonyl)-indole-1-carboxylic acid ethyl ester]
- Ki: 4.4 nM

Compound: O=C(c1c[nH]c2cc(Oc3ccc(F)cc3)ccc12)[C@@H]1CSC(c2cccnc2)N1 (stereo partly drawn) [[6-(4-Fluoro-phenoxy)-1H-indol-3-yl]-((R)-2-pyridin-3-yl-thiazolidin-4-yl)-methanone]
- Ki: 1.9 nM

Compound: CN(C)C(=O)n1cc(C(=O)[C@@H]2CSC(c3cccnc3)N2)c2ccc(C#Cc3ccccc3)cc21 (stereo partly drawn) [6-Phenylethynyl-3-((R)-2-pyridin-3-yl-thiazolidine-4-carbonyl)-indole-1-carboxylic acid dimethylamide]
- Ki: 1.3 nM

Compound: CN(C)C(=O)n1cc(C(=O)[C@@H]2CSC(c3cccnc3)N2)c2cccc(OCc3ccccc3)c21 (stereo partly drawn) [7-Benzyloxy-3-((R)-2-pyridin-3-yl-thiazolidine-4-carbonyl)-indole-1-carboxylic acid dimethylamide]
- Ki: 14 nM

Compound: O=C(C1CSC(c2cccnc2)N1)n1ccc2cc(OCc3ccccc3)ccc21 (stereo unspecified) [(5-Benzyloxy-indol-1-yl)-(2-pyridin-3-yl-thiazolidin-4-yl)-methanone]
- Ki: 15 nM

Compound: O=C(Nc1cccc(Cl)c1)c1ccn2c1CSC2c1cccnc1 (stereo unspecified) [RP-52770]
- Ki: 274 nM
